In EPA's ToxValDB 9.5:

Test system: Rattus norvegicus
[1] = developmental, oral, drinking water, M, Wistar, generation: F1, F1: elevated plus maze (open arm entries) + F1: elevated plus maze (time in open arms) + F1: open field (grooming events) + F1: open field (…
[2] = developmental, oral, gavage, F, Wistar, generation: F1, F1: novel object test (time exploring both objects, trial 2) + F1: novel object test (time exploring familiar object, trial 2)
[3] = developmental, oral, gavage, M, Wistar, generation: F1, F1: active avoidance (shuttle box, conditioned avoidance response, 4th block) + F1: passive avoidance (avoidance latency) + F1: rotarod (…
[4] = developmental, oral, gavage, M, Wistar, generation: F1, F1: auditory startle reflex (peak latency) + F1: auditory startle reflex (pre-pulse inhibition peak latency) + F1: vocalization (number …
[5] = subchronic, duration: 3 months, oral, drinking water, M/F, Sprague-Dawley, Morris water maze (escape time, acquisition, day 1) + Morris water maze (escape time, acquisition, day 5)
[6] = subchronic, duration: 3 months, oral, drinking water, M/F, Sprague-Dawley, Morris water maze (escape time, acquisition, day 6)
[7] = subchronic, duration: 12 weeks, oral, drinking water, M, Sprague-Dawley, territorial aggression (ventral presenting posture events of stud male)
[8] = subchronic, duration: 30 days, oral, drinking water, M, Wistar, active avoidance (shuttle box, number of avoidances of conditioned shock stimulus)

[F-].[Na+] [Sodium fluoride]
LOEL (developmental, oral, drinking water, M/F, Wistar, generation: F1, F1: open field (rearing events, day 1) + F1: open field (rearing events, day 3)): 2.33 mg/kg-day | NOEL (developmental, oral, drinking water, M/F, Wistar, generation: F1, F1: open field (squares crossed, day 1) + F1: open field (squares crossed, day 3)): 4.87 mg/kg-day | LOEL (developmental, oral, drinking water, M/F, Wistar, generation: F1, F1: passive avoidance (step-down test, number of shocks, session 2, day 30) + F1: passive avoidance (step-down test, time to move from …): 6.91 mg/kg-day | NOEL (developmental, oral, drinking water, M, Wistar, generation: F1, F1: cliff avoidance + F1: ear opening + F1: negative geotaxis + F1: surface righting): 0.54 mg/kg-day | LOEL [1]: 0.27 mg/kg-day | NOEL [1]: 0.54 mg/kg-day | LOEL (developmental, oral, drinking water, M, Wistar, generation: F1, F1: eye opening): 0.27 mg/kg-day | LOEL (developmental, oral, drinking water, M, Wistar, generation: F1, F1: open field (defecation)): 0.27 mg/kg-day | NOEL (developmental, oral, drinking water, M, Wistar, generation: F1, F1: open field (defecation) + F1: open field (rearing events, 15 min)): 0.54 mg/kg-day | LOEL (developmental, oral, drinking water, M, Wistar, generation: F1, F1: sexual behavior (% of males ejaculating) + F1: sexual behavior (ejaculation frequency) + F1: sexual behavior (ejaculation latency) + F1…): 3.12 mg/kg-day | NOEL (developmental, oral, drinking water, Wistar, generation: F1, F1: Y-maze (error number, 12 weeks) + F1: Y-maze (error number, 6 weeks) + F1: Y-maze (time to meet learning standard 90%, 6 weeks) + F1: Y-…): 2.78 mg/L serum | LOEL (developmental, oral, drinking water, Wistar, generation: F1, F1: Y-maze (time to meet learning standard 90%, 12 weeks) + F1: Y-maze (total reaction time, 6 weeks)): 2.78 mg/L serum | NOEL (developmental, oral, gavage, F, Wistar, generation: F1, F1: active avoidance (shuttle box, conditioned avoidance response, 1st block) + F1: active avoidance (shuttle box, conditioned avoidance …): 2.26 mg/kg-day | NOEL (developmental, oral, gavage, F, Wistar, generation: F1, F1: auditory startle reflex (amplitude) + F1: auditory startle reflex (peak latency) + F1: auditory startle reflex (pre-pulse inhibition …): 2.26 mg/kg-day | LOEL [2]: 2.26 mg/kg-day | NOEL [2]: 1.13 mg/kg-day | LOEL (developmental, oral, gavage, M/F, Sprague-Dawley, generation: F1, F1: air righting + F1: Morris water maze (escape time, probe test, day 5) + F1: Morris water maze (platform crossing, probe test, day 5) + …): 3.44 mg/kg-day | NOEL (developmental, oral, gavage, M/F, Sprague-Dawley, generation: F1, F1: auditory startle (response to metal object sound) + F1: cliff avoidance): 3.44 mg/kg-day | NOEL (developmental, oral, gavage, M, Wistar, generation: F1, F1: active avoidance (shuttle box, conditioned avoidance response, 1st block) + F1: novel object test (time exploring both objects, trial 2…): 2.26 mg/kg-day | LOEL [3]: 2.26 mg/kg-day | NOEL [3]: 1.13 mg/kg-day | LOEL (developmental, oral, gavage, M, Wistar, generation: F1, F1: auditory startle reflex (amplitude)): 1.13 mg/kg-day | LOEL [4]: 2.26 mg/kg-day | NOEL [4]: 1.13 mg/kg-day | LOEL (developmental, oral, gavage, M, Wistar, generation: F1, F1: sexual behavior (mount/intromission frequency) + F1: sexual behavior (mount/intromission latency)): 1.13 mg/kg-day | LOEL (short-term, duration: 14 days, injection, intraperitoneal, M, Wistar, rotarod (endurance time)): 9.05 mg/kg-day | LOEL [5]: 1.36 mg/kg-day | NOEL [5]: 0.68 mg/kg-day | LOEL [6]: 3.27 mg/kg-day | NOEL [6]: 0.33 mg/kg-day | NOEL (subchronic, duration: 3 months, oral, drinking water, M/F, Sprague-Dawley, Morris water maze (platform crossing, probe test, day 7) + Morris water maze (time in target quadrant, probe test, day 7)): 3.27 mg/kg-day | LOEL (subchronic, duration: 3 months, oral, drinking water, M/F, Wistar, passive avoidance (step-down test, time to move from rubber mat to electrified bar, session 2, day 30) + passive avoidance (step-down test, …): 5.84 mg/kg-day | LOEL (subchronic, duration: 3 months, oral, drinking water, M, Sprague-Dawley, Morris water maze (escape time, acquisition, day 1) + Morris water maze (escape time, acquisition, day 11) + Morris water maze (escape time…): 7.52 mg/kg-day | NOEL (subchronic, duration: 3 months, oral, drinking water, M, Wistar, Morris water maze (entries into target quadrant, probe test, day 4) + Morris water maze (escape time, acquisition, day 2) + Morris water …): 3.34 mg/kg-day | LOEL (subchronic, duration: 3 months, oral, gavage, M/F, Sprague-Dawley, Morris water maze (escape time, acquisition day 1) + Morris water maze (escape time, acquisition, day 5)): 9.05 mg/kg-day | NOEL (subchronic, duration: 3 months, oral, gavage, M, Albino, open field (ambulation distance) + open field (ambulation time) + open field (immobility time) + open field, stereotypic events + open field…): 9.05 mg/kg-day | LOEL (subchronic, duration: 3 months, oral, gavage, M, Albino, open field (squares crossed)): 4.52 mg/kg-day | LOEL (subchronic, duration: 3 months, oral, gavage, M, Wistar, Y-maze (number of training runs to meet 90% learning standard, day 23) + Y-maze (number of training runs to meet 90% learning standard, day …): 6.67 mg/kg-day | NOEL (subchronic, duration: 12 weeks, oral, drinking water, M, Sprague-Dawley, sexual behavior (ejaculation latency) + territorial aggression (fights with stud male)): 18.8 mg/kg-day | LOEL (subchronic, duration: 12 weeks, oral, drinking water, M, Sprague-Dawley, sexual behavior (intromission latency) + sexual behavior (post-ejaculatory interval) + sexual behavior (time to first mount) + sexual …): 6.27 mg/kg-day | LOEL [7]: 18.8 mg/kg-day | NOEL [7]: 6.27 mg/kg-day | NOEL (subchronic, duration: 12 weeks, oral, gavage, Wistar, open field (ambulation distance, 12 wks) + open field (ambulation distance, 3 wks) + open field (ambulation events, 12 wks) + open field (…): 2.3 mg/kg-day | NOEL (subchronic, duration: 30 days, oral, drinking water, M/F, Wistar, activity cage (ambulatory events) + activity cage (head turning events) + activity cage (head turning time) + activity cage (rearing events…): 10.4 mg/kg-day | LOEL (subchronic, duration: 30 days, oral, drinking water, M/F, Wistar, activity cage (ambulatory time) + activity cage (rearing time) + activity cage (sitting events) + activity cage (sitting time) + activity …): 10.4 mg/kg-day | NOEL (subchronic, duration: 30 days, oral, drinking water, M, Wistar, T-maze (number of errors, retention phase)): 40 mg/kg-day | LOEL (subchronic, duration: 30 days, oral, drinking water, M, Wistar, T-maze (number of sessions to reach learning criterion)): 40 mg/kg-day | LOEL [8]: 4.87 mg/kg-day | NOEL [8]: 2.33 mg/kg-day | NOEL (subchronic, duration: 30 days, oral, drinking water, M, Wistar, active avoidance (shuttle box, number of escapes of conditioned shock stimulus) + active avoidance (shuttle box, number of failures to avoid…): 4.87 mg/kg-day | LOEL (subchronic, duration: 30 days, oral, drinking water, M, Wistar, dental fluorosis_0 degrees + dental fluorosis_1 degree + open field (squares crossed, test session)): 2.33 mg/kg-day | NOEL (subchronic, duration: 30 days, oral, drinking water, M, Wistar, open field (squares crossed, day 1 - minute 1) + open field (squares crossed, day 1 - minute 2) + open field (squares crossed, day 1) + open…): 6.67 mg/kg-day | NOEL (subchronic, duration: 30 days, oral, drinking water, M, Wistar, passive avoidance (exploration, number of crossings) + passive avoidance (exploration, time in small compartment)): 14.8 mg/kg-day | LOEL (subchronic, duration: 30 days, oral, drinking water, M, Wistar, passive avoidance (retention, number of crossings) + passive avoidance (retention, time in small compartment) + T-maze (exploratory activity…): 14.8 mg/kg-day | LOEL (subchronic, duration: 30 days, oral, drinking water, M, Wistar, passive avoidance (retention, time in small compartment) + T-maze (exploratory activity) + T-maze (number of correct choices) + T-maze (…): 14.8 mg/kg-day | LOEL (mg% thigh bone) (subchronic, duration: 30 days, oral, gavage, motor activity (spontaneous) + orienting reflex): 10.6 | LOEL (subchronic, duration: 60 days, oral, drinking water, F, Wistar, activity cage (exploratory motor activity events) + rotarod (latency to fall, 14 rpm)): 111 mg/kg-day | LOEL (subchronic, duration: 60 days, oral, drinking water, F, Wistar, activity cage (motor activity events) + rotarod (latency to fall, 14 rpm)): 1.94 mg/L serum | LOEL (subchronic, duration: 60 days, oral, drinking water, Wistar, passive avoidance (retention, latency)): 1.8 mg/kg-day | LOEL (subchronic, duration: 60 days, oral, gavage, F, Wistar, activity cage (ambulation events)): 9.05 mg/kg-day | NOEL (subchronic, duration: 60 days, oral, gavage, F, Wistar, rotarod (latency to fall, 14 rpm)): 18.1 mg/kg-day
